# Earlier results in patent US20160375234A1, “[…] METHODS AND COMPOSITIONS FOR DIAGNOSING AND TREATING BREAST CONDITIONS” (ATOSSA GENETIC INC., priority 2014, published 2016).
# Test system: early-stage, HER2-overexpressing or -amplified breast cancer
# Conditions: patients with early-stage, presurgical
structure (smiles),measurement,value
CS(=O)(=O)CCNCc1ccc(-c2ccc3ncnc(Nc4ccc(OCc5cccc(F)c5)c(Cl)c4)c3c2)o1 [lapatinib],growth of breast premalignancy (including ADH and DCIS) and invasive cancer,suppressed growth
